One data set has as its target mPGES-1 (Homo sapiens, UniProt O14684). As to the kind of experiment: mPGES-1 activity in microsomal preparations of IL-1β-treated A549 cells. The format is biochemical. As to conditions: 10 μM. As to the method:
Confluent cells were detached by trypsin-EDTA (GE Healthcare) and reseeded at a density of 1 × 10^4 cells/cm^2.
Differential centrifugation at 10 000g for 10 min and 174 000g for 1 h at 4 °C yielded the microsomal fraction. The pellet was resuspended in homogenization buffer and diluted in 0.1 M potassium phosphate buffer pH 7.4 containing 2.5 mM glutathione. Microsomal membranes (adjusted to 2.5–5 μg total protein) were preincubated with 27a for 15 min at 4 °C. The mPGES-1 substrate PGH2 (20 μM) was added to induce PGE2 formation.

For another data set, the system named is PBMC. As to the kind of experiment: PBMC viability (MTT, mitochondrial dehydrogenase activity). The data set is classed as cell-based, human. Conditions: ≤1 μM, 24 h. As for the experimental part:
To measure mitochondrial dehydrogenase activity, 3-(4,5-dimethylthiazol-2-yl)-2,5-diphenyltetrazolium bromide (MTT) (20 μL, 5 mg/mL, Sigma-Aldrich) was added to PBMC. After 4 h in the darkness, the formed formazan product was solubilized (10% SDS in 20 mM HCl) and the absorbance was read at 570 nm using a Multiskan Spectrum microplate reader (Thermo Fisher Scientific).[81]

The test system of a further data set is 15-LOX. The data set can be described thus: 15-LOX product formation in activated PMNL. The format is cell-based, human.
The test system of a further data set is PMNL. As to the kind of experiment: Intracellular uptake by PMNL. As to conditions: 150 nM for 20 min. The format is cell-based, human. As for the experimental part: Cells were centrifuged (1200g, 5 min, 4 °C) and washed thrice with PBS pH 7.4 with 0.1% fatty-acid-free BSA (Sigma-Aldrich). Compounds were extracted and analyzed by UPLC-MS/MS as described below for LCMs and derivatives. The intracellular concentrations of 27a and 12a were calculated assuming a spherical cell shape with a diameter of 13 μm (as measured using a Vi-CELL Series Cell Counter, Beckman Coulter, Krefeld, Germany) and an equal intracellular distribution. 13d (9 pmol) was used as the internal standard.

The nature of data set [1]: Concentrations of compound in plasma and lung in the asthma model. The format is in vivo, mice. Conditions: 10 mg/kg p.o. on days 0 and 7. As for the experimental part: LCMs, 27a, and 27a metabolites were extracted from PMNL, medium of the liver-on-chip, murine plasma, peritoneal exudate, or homogenized murine tissue as described.[6] In brief, PBS pH 7.4, methanol, chloroform, and saline (final ratio: 14:34:35:17) were successively added together with 13d (9 pmol) as the internal standard. The organic layer was evaporated, and the extracted LCMs were dissolved in methanol.
LCMs, 27a, and 27a metabolites were separated at a flow rate of 0.8 mL/min and a column temperature of 45 °C, with acetonitrile/H2O (10:90) as mobile phase A and acetonitrile as mobile phase B, both acidified with 0.07% formic acid. […] Signal intensities were normalized to the internal standard 13d, and concentrations were calculated using external calibration curves as specified in Table S3.
BALB/c mice received 27a (p.o.) or vehicle (0.5% carboxymethylcellulose in 10% Tween 20; 0.5 mL) on days 0 and 7, 1 h (p.o) before being sensitized to ovalbumin (100 μg adsorbed to 3.3 mg of aluminum hydroxide gel, s.c., Sigma-Aldrich). […] To assess bronchial reactivity, the cumulative response to carbachol (0.001 to 3.16 μM) was measured. Bronchial relaxation was determined from the cumulative response of precontracted bronchial tissues to salbutamol. Compound 27a, LTB4, and LTB4 isomers were analyzed in plasma and lung homogenates by UPLC-MS/MS. […]

The target in a further data set is T1, 5-LOX (Homo sapiens, UniProt P09917).
T1 sequence (P09917 1-674): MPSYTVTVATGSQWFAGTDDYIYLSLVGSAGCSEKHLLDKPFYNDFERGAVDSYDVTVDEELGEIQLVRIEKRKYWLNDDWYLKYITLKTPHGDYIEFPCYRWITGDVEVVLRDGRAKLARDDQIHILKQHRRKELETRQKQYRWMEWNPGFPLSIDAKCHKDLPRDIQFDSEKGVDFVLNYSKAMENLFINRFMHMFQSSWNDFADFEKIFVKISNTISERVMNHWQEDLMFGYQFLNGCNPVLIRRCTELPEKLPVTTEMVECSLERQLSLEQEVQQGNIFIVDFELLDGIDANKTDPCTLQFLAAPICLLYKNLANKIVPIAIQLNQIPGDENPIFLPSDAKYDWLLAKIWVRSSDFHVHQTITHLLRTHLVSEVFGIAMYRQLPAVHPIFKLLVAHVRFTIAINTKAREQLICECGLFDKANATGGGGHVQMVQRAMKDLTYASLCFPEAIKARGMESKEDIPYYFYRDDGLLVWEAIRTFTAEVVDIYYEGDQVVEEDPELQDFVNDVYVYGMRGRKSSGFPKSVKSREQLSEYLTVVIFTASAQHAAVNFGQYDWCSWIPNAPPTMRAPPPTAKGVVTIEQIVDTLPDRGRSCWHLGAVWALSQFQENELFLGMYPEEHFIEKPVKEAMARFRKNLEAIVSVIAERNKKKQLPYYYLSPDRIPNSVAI
The data set can be described thus: Tryptophan fluorescence spectroscopy of 5-LOX. The data set is classed as binding. Further details: made in house; host or cells: E. coli Bl21 (DE3). As to conditions: 5-LOX titrated with compound, 0–10 μM. As for the experimental part: Fluorescence spectroscopy measurements on human recombinant 5-LOX (Abcam, Cambridge, U.K.) were conducted in PBS pH 7.4 at 25 °C using an Edinburgh Instruments FLS920 Series fluorescence spectrophotometer (Livingston, U.K.). […] The concentration range of 5-LOX used through the experiments was 0.3–0.6 μM. 5-LOX was titrated with a stock solution of the test compounds in dimethylformamide to yield an experimental compound concentration in the range of 0–10 μM. The final dimethylformamide concentration was kept under 5%. After each addition, the sample was incubated for 10 min before measurement. The fluorescence emission intensity values were corrected for dilution and background noise. All conditions were measured independently and in duplicate.
The fluorescence spectral shifts were analyzed by monitoring the alterations in the spectral center of mass by estimating the intensity-averaged emission wavelength (⟨λ⟩), as calculated from the following equation, where Fi is the fluorescence emission intensity at wavenumber νi, and the summation was performed over the range of measured F values [drawing 1] 1

We go through one compound from paper PMC8365602 (Journal of Medicinal Chemistry, 2021).

Chain of mPGES-1 (O14684 whole entry): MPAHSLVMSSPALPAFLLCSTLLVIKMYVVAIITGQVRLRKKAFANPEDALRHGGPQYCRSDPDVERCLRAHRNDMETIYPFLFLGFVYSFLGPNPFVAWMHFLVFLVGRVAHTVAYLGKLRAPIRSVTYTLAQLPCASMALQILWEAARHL
Protocol for 15-LOX: Freshly isolated PMNL (5 × 10^6) suspended in PBS pH 7.4 with 1 mg/mL glucose or freshly withdrawn human whole blood were preincubated with the test compounds for 10 min (or as indicated) at 37 °C. […] The reaction was stopped with an equal volume of methanol.

`C/C(=C\CC/C(C)=C/CC[C@]1(C)CCc2c(C)c(O)c(C)c(C)c2O1)CCC=C(CO)CO` [Compound 27a, α-amplexichromanol]: the mPGES-1 activity result on mPGES-1 is given as “decreased mPGES-1 activity”. The “Mitochondrial dehydrogenase activity in PBMC (cell viability)” value in the data set with PBMC is reported as “impaired neither mitochondrial dehydrogenase activity”. In addition, the 15-LOX inhibition result in the data set on 15-LOX (activated human PMNL) is on record as “not substantially inhibited”. Besides, the 15-LOX product formation entry in the data set with 15-LOX (submicromolar concentrations) was “increased by a trend”. Moreover, in the data set on PMNL, the “Intracellular accumulation in PMNL” value is listed as “strongly accumulates in PMNL”. Besides, the “Time course of systemic concentrations in plasma and lung” value in data set [1] was “peaked at the days after administration (days 1 and 8) and then rapidly declined”. Moreover, the “Shift of spectral center of mass of intrinsic Trp fluorescence of 5-LOX” value at 5-LOX is recorded as “less pronounced”.
